Results taken from paper PMC11094793, “Discovery of LLC0424 as a Potent and Selective in Vivo NSD2 PROTAC Degrader” (Journal of Medicinal Chemistry, 2024).
Read-outs that look alike come from different tables or passages of the source.

What was measured:
H3K36me2 = H3K36me2 level by immunoblotting; format: cell-based, human; conditions: 2 μM
Description: NSD2 is the primary methyltransferase that transfers dimethyl to H3K36 in ALL with NSD2 gain-of-function mutation. Therefore, the effects of LLC0424 on H3K36me2 was evaluated in SEM and RPMI-8402 cells. […] Meanwhile, LLC0424 treatment also led to downregulation of H3K36Me2 in RPMI-8402 cells within 24 h (Figure 6B). […] We also conducted a colony formation assay to evaluate the effect of LLC0424 on the stem cell-like property of the leukemia cells. […] As LLC0424 leads to strong degradation of both NSD2-L and NSD2-S, the phenotypic changes upon LLC0424 treatment result from complete inactivation of NSD2 activity, including adaptor-like function of NSD2-S and SET-domain dependent enzymatic function of NSD2-L. The specific contributions of NSD2 isoforms warrant future investigation. To characterize the genes affected by LLC0424 treatment, we performed global transcriptome analysis of SEM cells treated by DMSO, LLC0424, or LLC0424N. LLC0424 treatment led to significant changes in the transcriptome of SEM cells with over 326 differentially expressed genes. […]
After treatment, the cultured cells were collected and rinsed with phosphate-buffered saline (PBS) in room temperature. […] After sonication and centrifugation, the total amount of protein in the cell lysates was measured by Pierce Bovine Serum Albumin Standard Pre-Diluted Set (ThermoFisher Scientific). […]

RPMI-8402 cells = assay: Cell viability assay (CellTiter-Glo, 7 days), RPMI-8402; format: cell-based, human; conditions: Homo sapiens, 168 h, read-out: IC50 (growth, cell viability)
Description: Cells were plated in 50 μL of the corresponding media in 96-well plates. A 2-fold dilution series of 2* concentrated LLC0424 was prepared in a medium with the highest concentration being 60 μM. Then 50 μL of the 2× compound-containing mixture was added to each well with 6 replicates for each concentration, reaching 1× concentration, with the highest concentration being 30 μM. The plate was incubated for 7 days. At the end point, the CellTiter-Glo assay (Promega) was then performed according to the manufacturer’s instruction to determine cell proliferation. The luminescence signal intensity of each well was acquired on an Infinite M1000Pro microplate reader and the data was analyzed using GraphPad Prism software (GraphPad Software).

[1] = PK parameters in rats (LC/MS/MS); conditions: rat, in vivo; for MRT last: read-out: MRT (0-t)
Text: Table S4. PK parameters of LLC0424 in rats a Route/dose T1/2 Tmax Cmax AUC(0-t) CL MRT Vss F(%) […]
aDetermined using LC/MS/MS. T1/2: elimination half-life; Tmax: time for maximum concentration; Cmax: maximum concentration; AUC: the area under the curve; CL: clearance; MRT: mean residence time; Vss: volume of distribution; F: oral

In the case of `O=C1CCC(N2C(=O)c3ccc(N4CCC(NC(=O)c5ccc(NC(=O)c6ccc(CN(C(=O)c7ccc8c(c7)OCC(=O)N8)C7CC7)cc6)cc5)CC4)cc3C2=O)C(=O)N1` (stereo not shown) [compound 10l, N-Cyclopropyl-N-(4-((4-((1-(2-(2,6-dioxopiperidin-3-yl)-1,3-dioxoisoindolin-5-yl)piperidin-4-yl)carbamoyl)phenyl)carbamoyl)benzyl)-3-oxo-3,4-dihydro-2H-benzo[b][1,4]oxazine-7-carboxamide], the H3K36Me2 level (H3K36me2; RPMI-8402 cells, within 24 h) is reported as “downregulation”, the H3K36Me2 level (H3K36me2; SEM cells, as long as 8 days) is reported as “persistent downregulation” and the IC50 (RPMI-8402 cells) is reported as 0.56 µM. The AUC(0-t) ([1]; iv, i.v. 2 mg/kg) was 4320 ng·h/mL, the Cmax ([1]; iv, i.v. 2 mg/kg) was 7320 ng/mL and the Tmax ([1]; iv, i.v. 2 mg/kg) was 0.083 h. It also gave a clearance ([1]; iv, i.v. 2 mg/kg) of 7.58 mL/min/kg, a half-life ([1]; iv, i.v. 2 mg/kg) of 2.1 h and an MRT last ([1]; iv, i.v. 2 mg/kg) of 1.28 h. For the same molecule, the Vd ([1]; iv, i.v. 2 mg/kg, read-out: Vss) was 0.763 L/kg, the AUC(0-t) ([1]; oral 10 mg/kg) was 777 ng·h/mL and the Cmax ([1]; oral 10 mg/kg) was 162 ng/mL. The Tmax ([1]; oral 10 mg/kg) was 2 h, the bioavailability ([1]; oral 10 mg/kg) was 3.67% and the half-life ([1]; oral 10 mg/kg) was 1.52 h. It also gave an MRT last ([1]; oral 10 mg/kg) of 3.18 h.
